Reference: US20010053766A1, “Method of treating disorders of the eye” (priority 2000, published 2001)
Ends that are not written are not given here.

How the values were obtained:
[1] = tested on: Human Schlemm's canal (SC) cell monolayers; test: SC cell monolayer permeability barrier function (HRP diffusion on Transwells); type: cell-based; details: 200 μM peptide, 1 hr, complete medium, n=7; mean ± S.E.
Method: (§1) Human cadaver eye tissues were obtained from the National Disease Research Interchange (NDRI; Philadelphia, Pa.), and the SC cells were isolated following the techniques previously described (Stammer et al, Invest. Ophthalmol. Vis. Sci. 39:1804 (1998)). The cells were grown in Dulbecco's modified Eagle's medium with 10% fetal bovine serum, 2 mM L-glutamine, 100 U/ml penicillin G and 100 μg/ml streptomycine sulfate (all from GibcoBRL, Gaithersburg, Md.). The primary cultures of SC cells were used between the passages of three to six, throughout the experiments.
To correlate the specific effects of the RGD peptide compared to a control RGE peptide, the standard device was used to measure the monolayer permeability barrier function on Transwells cell culture chambers (fibronectin-coated polycarbonate filters, […] pore size, Costar Corp.) as described by Lampugnani et al (J. Cell Biol. 112: 479-490 (1991)). The diffusion of horseradish peroxidase (HRP) through SC cell monolayer was determined with and without RGD hexapeptide GRGDTP (Sigma, St. Louis, Mo.) or known control RGE hexapeptide GRGESP (GibcoBRL, Gaithersberg, Md.). […] Results were expressed as percent change in enzyme activity as compared to untreated controls. Values were obtained from three independent experiments and expressed as means±S.E. A paired t-test analysis was also performed with respect to untreated controls.

[2] = tested on: Human Schlemm's canal (SC) cell monolayers; test: SC cells monolayer integrity assay in vitro (phase contrast, F-actin and focal adhesion staining); type: cell-based; details: complete medium, 37 C
Method: as §1
To evaluate the effect of RGD peptide on monolayer integrity, the SC cells were seeded on fibronectin-coated coverslips and grown for 10 days in complete medium. Before the experiment, the gaps in the confluent cells layer on coverslips were examined thoroughly. Further, the culture media was replaced with RGD peptide or control RGE peptide (200 μM)-containing complete medium and incubated at 37° C. in CO2 incubator. The changes in morphology (cell retraction, cell-cell attachments) were followed for 3 hrs. The induced morphological changes were monitored by phase contrast microscopy (Zeiss IM 35). For clear illustration of the specific and non-toxic effects of RGD peptide, the changes in SC cells monolayer integrity and reversibility were followed after treatment at higher concentration (1.0 mM) as compared to control RGE peptide. The coverslips were fixed with 3.7% formaldehyde and stained for F-actin and focal adhesions as described earlier (Lampugnani et al, J. Cell Biol. 112: 479-490 (1991)). The RGD-containing medium was removed with complete culture medium after three times washing and incubation was continued. Further, the reversibility of the gaps formation was followed.

[3] = tested on: outflow pathway cells of perfused porcine eyes; test: Morphological studies of perfused eyes (transmission electron microscopy of outflow pathway); details: porcine eyes perfused with peptide, 4 pairs, versus sham controls
Method: After completion of RGD perfusion experiments, 4 pairs of the experimental and the control eyes were fixed for morphological examination. The fixation was performed by perfusing overnight at constant pressure of 15 mmHg with perfusion buffer containing 2.5% gluteraldehyde and 2.0% formaldehyde. Small cross-section wedges of the outflow pathway area of fixed eyes were prepared for transmission electron microscopy as described previously (Epstein et al, Invest. Ophthalmol Vis. Sci. 40:74-8116 (1999)). The specimens were fixed in 1% osmium tetraoxide in 0.1 M sodium cacodylate buffer and stained with 1% uranyl acetate for 1 hr in dark. Further, the tissues were dehydrated, infiltrated and embedded on Spurr embedding medium (Ted Pella, Inc., Redding, Calif.). Ultrathin sections (70 nm) were obtained by microtomy and stained with potassium permanganate and Sato's lead sequentially before examined with a transmission electron microscope (1200 EX; JEOL, Peabody, Mass.).

[4] = tested on: New Zealand White rabbits; test: RGD-peptide injection in the anterior chamber of rabbit eye; type: in vivo; details: 500 μg in PBS injected into the anterior chamber of one eye, live rabbits n=3
Method: New Zealand White rabbits of approximately five pounds were used for this experiment. Baseline Intraocular Pressure (IOP) data was obtained using a MENTOR tonopen prior to anaesthesia. The rabbits were anaesthetized with IM KETAMINE and topical proparacaine. The GRGDTP peptide (500 μg) was dissolved in phosphate buffered saline (PBS) and injected into the anterior chamber of only one eye. Further intraocular pressure mesurements were performed with a tonopen and data recorded in a time dependent manner, as shown in FIG. 8.
The results are expressed as percent change in IOP as compared to basal values obtained before injection of the RGD peptide. The basal value was taken as IOP (0%) in both eyes and the contralateral eye was used as control.

Substance	increase in SC cells monolayer permeability (HRP diffusion) as compared to untreated controls [1]	morphological effect on SC cell monolayer integrity ([2]; 200 μM peptide, up to 3 hrs)	morphological effect on SC cell monolayer integrity ([2]; 1.0 mM peptide, 3 hrs)	morphological effect on SC cell monolayer integrity ([2]; 1.0 mM peptide, 3 hrs, listed as RGE peptide)	cellular toxicity in outflow pathway of perfused eyes [3]	cellular toxicity in outflow pathway of perfused eyes ([3]; listed as RGD)	evidence of anterior chamber inflammation and wound leakage [4]
GRGESP	12%±3	compact cellular morphology	no such effect was noted	no detectable effects			
GRGDTP [GRGDTP]					did not show signs of cellular toxicity	no sign of cellular toxicity	no clinically significant changes
